{"source": "paper PMC7173930", "about": "“EAT-18 is an essential auxiliary protein interacting with the non-alpha nAChR subunit EAT-2 to form a functional receptor” (PLoS Pathogens, 2020)", "key": {"[1]": {"biological_target": "T1, Cel-EAT-2 and Cel-EAT-18c nAChR (Caenorhabditis elegans, UniProt Q9U298)", "T1 sequence (Q9U298 22-474)": "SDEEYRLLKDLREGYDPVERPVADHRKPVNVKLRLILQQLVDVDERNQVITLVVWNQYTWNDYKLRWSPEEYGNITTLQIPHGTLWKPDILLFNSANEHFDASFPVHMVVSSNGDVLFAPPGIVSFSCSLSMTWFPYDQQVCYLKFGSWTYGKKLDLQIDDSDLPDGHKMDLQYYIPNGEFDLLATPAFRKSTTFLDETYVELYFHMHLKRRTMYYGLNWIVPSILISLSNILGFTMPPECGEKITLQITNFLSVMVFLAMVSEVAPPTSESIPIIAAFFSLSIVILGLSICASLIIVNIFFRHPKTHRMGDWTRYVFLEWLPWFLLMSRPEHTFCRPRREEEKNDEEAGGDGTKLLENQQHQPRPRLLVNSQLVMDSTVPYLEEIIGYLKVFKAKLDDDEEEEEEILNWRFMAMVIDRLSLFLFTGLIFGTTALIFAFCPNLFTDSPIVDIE", "test": "Two-electrode voltage-clamp of Cel-EAT-2 + Cel-EAT-18c nAChR expressed in Xenopus oocytes", "format": "cell-based", "conditions": "for Emax at 100 µM: read-out: current response normalized to the control 100 μM ACh current (Imax); for Emax at 100 µM / current response normalized to the control 100 μM ACh current (Imax): agonist 100 μM, n≥6; for Emax at 100 µM / current response normalized to the control 100 μM ACh current (Imax) / Hill slope (nH): mean±SEM; for Hill slope (nH): agonist concentration-response; for EC50: read-out: pEC50 (converted)"}, "[2]": {"system": "nAChRs expressed in the pharynx of A. suum", "test": "tissue or blood", "format": "cell-based", "conditions": "for mode of antagonism of the pharyngeal ACh response: ACh pEC50 unchanged, maximal response inhibited; for Emax: read-out: % change in membrane conductance (δG) normalized to the ACh δG", "method": "A. suum pharyngeal dissections and electrophysiology recordings were adapted from Martin [49]. Briefly, pharynx was dissected out from the head region of the worm and mounted on Sylgard (Sigma-Aldrich Inc., USA)—lined in a double jacketed bath chamber maintained at 28°C. The muscle layer surrounding the anterior 3rd of the pharynx was preserved for anchoring. The intestine attached to the posterior end of the pharynx was used for stretching and pinning down. The preparation was continuously perfused with calcium-free Ascaris Perienteric Fluid-Ringer (calcium-free APF-Ringer) composition (mM): NaCl 23, Na-acetate 110, KCl 24, MgCl2 11, glucose 11, and HEPES 5; NaOH or acetic acid was added to adjust the pH to 7.6. […] The rate of localized perfusion was 3.5–4 ml min^−1 through a 20-gauge needle, which was placed directly above the recording region of the pharynx. […] We used 3 M potassium acetate in our micropipettes to get the final resistances of 4–7 MΩ for the voltage sensing and 0.5–1 MΩ for the current injecting electrode for current-clamp recordings. The current-injecting electrode injected hyperpolarizing step currents of −1000 nA for 500 ms at 0.3 Hz.\nWe constructed the sigmoidal concentration-response plots by fitting the data by nonlinear regression to determine the pEC50 and the maximal response (Rmax). Extra sum of squares F-test was used to test statistical differences between pEC50, slope, and maximal response. The significance levels were set to P<0.05.\nIn applications containing arecoline and pilocarpine, we used mecamylamine, a nAChR antagonist (30µM) to inhibit nAChRs and to allow only mAChR activation."}, "Asu-EAT-2 nAChR": {"biological_target": "Asu-EAT-2 nAChR (Ascaris suum, UniProt F1L9Y6)", "sequence (F1L9Y6 entry or part of it)": "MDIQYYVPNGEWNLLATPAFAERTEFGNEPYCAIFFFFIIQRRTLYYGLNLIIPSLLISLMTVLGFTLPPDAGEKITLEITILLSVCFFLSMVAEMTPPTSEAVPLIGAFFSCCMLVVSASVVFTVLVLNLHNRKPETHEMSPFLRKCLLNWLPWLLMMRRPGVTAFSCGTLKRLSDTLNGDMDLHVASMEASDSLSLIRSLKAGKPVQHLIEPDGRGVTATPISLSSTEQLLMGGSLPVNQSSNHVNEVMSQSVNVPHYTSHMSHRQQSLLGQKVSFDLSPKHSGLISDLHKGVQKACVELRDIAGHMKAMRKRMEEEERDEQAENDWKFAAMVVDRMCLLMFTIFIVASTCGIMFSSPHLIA", "sequence (F1L1D9 entry or part of it, further chain)": "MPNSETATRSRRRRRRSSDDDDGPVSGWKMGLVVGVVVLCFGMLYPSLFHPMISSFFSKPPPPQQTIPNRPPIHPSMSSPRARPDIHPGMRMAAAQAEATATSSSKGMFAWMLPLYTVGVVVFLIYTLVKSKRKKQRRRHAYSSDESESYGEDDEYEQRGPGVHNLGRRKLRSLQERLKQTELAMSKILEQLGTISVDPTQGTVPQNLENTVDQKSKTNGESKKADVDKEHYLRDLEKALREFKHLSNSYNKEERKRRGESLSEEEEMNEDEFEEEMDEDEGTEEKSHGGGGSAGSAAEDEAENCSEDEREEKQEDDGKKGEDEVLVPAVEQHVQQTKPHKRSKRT", "test": "cell-based", "format": "cell-based, A. suum"}, "[3]": {"system": "A. suum muscarinic receptor", "parameters": "method as in earlier work", "conditions": "all used at 100 µM; ref 1 Kimber M.J. et al. Int J Parasitol 39: 1215-1222 (2009); cited from earlier work"}, "[4]": {"conditions": "read-out: current response normalized to the control 100 μM ACh current, mean±SEM, n≥5"}}, "note": "Several values for one entry are separate records, joined by “and”; a condition that tells them apart may be missing. Identical values can stand only once. Like-named read-outs stand apart in the source and are kept apart here."}
{"molecule": "c1cncc([C@@H]2CCCCN2)c1", "note": "[anabasine]", "values": [{"measurement": "Emax at 100 µM", "setting": "[1]", "value": 0, "unit": "%"}]}
{"molecule": "CCN1C[C@]2(COC(=O)c3ccccc3N3C(=O)C[C@H](C)C3=O)CC[C@H](OC)[C@@]34[C@@H]5C[C@H]6[C@H](OC)[C@@H]5[C@](O)(C[C@@H]6OC)[C@@](O)([C@@H](OC)[C@H]23)[C@@H]14", "note": "[methyllycaconitine]", "values": [{"measurement": "% inhibition of 100 μM ACh membrane conductance (δG)", "setting": "[2]", "value": "62.6±3.7", "unit": "%"}, {"measurement": "mode of antagonism of the pharyngeal ACh response", "setting": "[2]; antagonist 10 μM", "value": "non-competitive antagonists"}, {"measurement": "maximal response (δG) of ACh in the presence of antagonist", "setting": "[2]; antagonist 10 μM, mean±SE", "value": "57.0±4.6", "unit": "μS"}]}
{"molecule": "CC(=O)OC(C)C[N+](C)(C)C", "note": "(stereo not shown) [methacholine]", "values": [{"measurement": "current response normalized to the control 100 μM ACh current (Imax)", "setting": "[1]", "value": "73 ± 5.3", "unit": "%"}, {"measurement": "Hill slope (nH)", "setting": "[1]", "value": "3.5±1.3"}, {"measurement": "Emax at 100 µM", "setting": "[1]", "value": "73 ± 5.3", "unit": "%"}, {"measurement": "EC50", "setting": "[1]", "value": 79.4, "unit": "µM"}]}
{"molecule": "CO[C@H]1CC=C2CCN3CCC4=C(CC(=O)OC4)[C@]23C1", "note": "[DHβE, Dihydro-β-erythroidine]", "values": [{"measurement": "effect on sensitivity and efficacy of the receptor for ACh", "setting": "[1]", "value": "not altered"}, {"measurement": "Imax of ACh concentration-response in the presence of antagonist", "setting": "[1]; antagonist 30 μM", "value": "91.1±4.1", "unit": "%"}, {"measurement": "% inhibition of 100 μM ACh membrane conductance (δG)", "setting": "[2]", "value": "17.9±5.0", "unit": "%"}, {"measurement": "maximal response (δG) of ACh in the presence of antagonist", "setting": "[2]; DHβE 30 μM, mean±SE", "value": "89.7±3.0", "unit": "μS"}, {"measurement": "mean % inhibition of ACh (100 μM) mediated currents", "setting": "Asu-EAT-2 nAChR", "value": "66±8.4", "unit": "%"}]}
{"molecule": "CN1C(=O)[C@]23C[C@H]4C(C)(C)[C@@]5(C[C@@]41CN2CC[C@@]3(C)O)C(=O)Nc1c5ccc2c1OC=CC(C)(C)O2", "note": "[paraherquamide]", "values": [{"measurement": "Imax of ACh concentration-response in the presence of antagonist", "setting": "[1]; antagonist 30 μM", "value": "40.2±2.7", "unit": "%"}, {"measurement": "% inhibition of 100 μM ACh membrane conductance (δG)", "setting": "[2]", "value": "37.2±8.7", "unit": "%"}, {"measurement": "mode of antagonism of the pharyngeal ACh response", "setting": "[2]; antagonist 10 μM", "value": "non-competitive antagonists"}, {"measurement": "maximal response (δG) of ACh in the presence of antagonist", "setting": "[2]; antagonist 10 μM, mean±SE", "value": "87.7±5.7", "unit": "μS"}]}
{"molecule": "C#Cc1cncc([C@@H]2CCCN2C)c1", "note": "[SIB 1508Y]", "values": [{"measurement": "Emax at 100 µM", "setting": "[1]", "value": 0, "unit": "%"}]}
{"molecule": "CN1CCCN=C1/C=C/c1cccc(O)c1", "note": "[oxantel]", "values": [{"measurement": "current response normalized to the control 100 μM ACh current (Imax)", "setting": "[1]", "value": "11 ± 1.3", "unit": "%"}, {"measurement": "Emax at 100 µM", "setting": "[1]", "value": "11 ± 1.3", "unit": "%"}, {"measurement": "Emax", "setting": "[2]; Ascaris suum", "value": 0, "unit": "%"}, {"measurement": "Emax", "setting": "Asu-EAT-2 nAChR; [4]", "value": "3 ± 1.3", "unit": "%"}]}
{"molecule": "C[N+](C)(CCOc1ccccc1)Cc1ccccc1", "note": "[bephenium]", "values": [{"measurement": "current response normalized to the control 100 μM ACh current (Imax)", "setting": "[1]", "value": "did not activate the receptor"}, {"measurement": "Emax at 100 µM", "setting": "[1]", "value": 0, "unit": "%"}, {"measurement": "Emax", "setting": "[2]; Ascaris suum", "value": "7.2 ± 3.5", "unit": "%"}, {"measurement": "current response normalized to the control 100 μM ACh current", "setting": "Asu-EAT-2 nAChR; mean±SEM, n≥5", "value": "failed to activate the receptor"}, {"measurement": "Emax", "setting": "Asu-EAT-2 nAChR; [4]", "value": "0.1 ± 0.1", "unit": "%"}]}
{"molecule": "O=C1CCCN1CC#CCN1CCCC1", "note": "[oxotremorine]", "values": [{"measurement": "normalized response (δG) to muscarinic agonists, control ACh = 100%", "setting": "[2]; 100 μM, 10 s application, mean±SE, n=4", "value": "1.8±0.8", "unit": "%"}, {"measurement": "response relative to ACh (rank order series of muscarinic agonists)", "setting": "[3]", "value": 61, "unit": "%"}]}
{"molecule": "C[N+](C)(C)CCOC(N)=O", "note": "[carbachol]", "values": [{"measurement": "Hill slope (nH)", "setting": "[1]", "value": "2.1±0.3"}, {"measurement": "Emax at 100 µM", "setting": "[1]", "value": "37 ± 3.4", "unit": "%"}, {"measurement": "EC50", "setting": "[1]", "value": 398, "unit": "µM"}, {"measurement": "response relative to ACh (rank order series of muscarinic agonists)", "setting": "[3]", "value": 80, "unit": "%"}]}
{"molecule": "CC(C[N+](C)(C)C)OC(N)=O", "note": "(stereo not shown) [bethanechol]", "values": [{"measurement": "response relative to ACh (rank order series of muscarinic agonists)", "setting": "[3]", "value": 58, "unit": "%"}]}
{"molecule": "C[N+](C)(CCOc1ccccc1)Cc1cccs1", "note": "[thenium]", "values": [{"measurement": "Emax", "setting": "[2]; Ascaris suum", "value": "6.1 ± 1.5", "unit": "%"}, {"measurement": "Emax", "setting": "Asu-EAT-2 nAChR; [4]", "value": 0, "unit": "%"}]}
{"molecule": "CC(=O)OCC[N+](C)(C)C", "note": "[ACh, acetylcholine]", "values": [{"measurement": "Hill slope (nH)", "setting": "[1]", "value": "1.9±0.3 and 1.9 ± 0.2"}, {"measurement": "Emax", "setting": "[2]; Ascaris suum", "value": 100, "unit": "%"}, {"measurement": "EC50", "setting": "[2]; Ascaris suum, concentration-conductance curve, 1-1000 μM applied for 10 s, mean±SEM, read-out: pEC50 (converted)", "value": 10, "unit": "µM"}, {"measurement": "maximal response", "setting": "[2]; agonist concentration-response curve", "value": "105.3 ± 2.5", "unit": "μS"}, {"measurement": "Hill slope (nH)", "setting": "[2]; concentration-conductance curve, mean±SEM", "value": "1.8±0.3"}, {"measurement": "times more potent on Asu-EAT-2 nAChR compared to Cel-EAT-2", "setting": "Asu-EAT-2 nAChR", "value": "≈ 9 times"}, {"measurement": "Hill slope (nH)", "setting": "Asu-EAT-2 nAChR; ACh concentration-response, mean±SEM, n=6", "value": "3.5 ± 1.1"}, {"measurement": "Emax at 100 µM", "setting": "Asu-EAT-2 nAChR; [4]", "value": 100, "unit": "%"}]}
{"molecule": "CNC1(C)C2CCC(C2)C1(C)C", "note": "(stereo not shown) [mecamylamine]", "values": [{"measurement": "% inhibition of 100 μM ACh membrane conductance (δG)", "setting": "[2]", "value": "92% and 92.2±1.9%"}]}
{"molecule": "α-bungarotoxin [α-BTX]", "values": [{"measurement": "Imax of ACh concentration-response in the presence of antagonist", "setting": "[1]", "value": "86.0±2.4", "unit": "%"}, {"measurement": "effect on sensitivity and efficacy of the receptor for ACh", "setting": "[1]", "value": "not altered"}]}
{"molecule": "COc1cc2c3cc1Oc1cc(ccc1O)C[C@@H]1c4c(cc(OC)c(O)c4Oc4ccc(cc4)C[C@@H]3N(C)CC2)CC[N+]1(C)C", "note": "[d-TC, d-tubocurarine]", "values": [{"measurement": "inhibition at 30 µM", "setting": "[1]; read-out: reduction (inhibition) in the mean ACh response, 30 μM d-tubocurarine", "value": "~98", "unit": "%"}, {"measurement": "% inhibition of 100 μM ACh membrane conductance (δG)", "setting": "[2]", "value": "94.6±0.2", "unit": "%"}, {"measurement": "mode of antagonism of the pharyngeal ACh response", "setting": "[2]; antagonist 10 μM", "value": "non-competitive antagonists"}, {"measurement": "maximal response (δG) of ACh in the presence of antagonist", "setting": "[2]; antagonist 10 μM, mean±SE", "value": "23.0±3.0", "unit": "μS"}]}
{"molecule": "c1ccc([C@H]2CN3CCSC3=N2)cc1", "note": "[levamisole]", "values": [{"measurement": "Emax at 100 µM", "setting": "[1]", "value": 0, "unit": "%"}, {"measurement": "Emax", "setting": "[2]; Ascaris suum", "value": "1.8 ± 0.61", "unit": "%"}, {"measurement": "current response normalized to the control 100 μM ACh current", "setting": "Asu-EAT-2 nAChR", "value": "failed to activate the receptor"}, {"measurement": "Emax", "setting": "Asu-EAT-2 nAChR; read-out: current response normalized to the control 100 μM ACh current", "value": 0, "unit": "%"}]}
